The text below walks through data of article PMC9982066, “Inhibition of Ehrlichia chaffeensis infection by cell-permeable macrocyclic peptides that bind type IV secretion effector Etf-1” (PNAS Nexus, 2023).

The target in data set [1] is Etf-1 (Ehrlichia chaffeensis, UniProt Q2GG12). In words: biochemical. Type of data set: binding. Conditions: unlabeled competitor peptides vs FAM-B7-133-8. The protocol: Fig. 2. Determination of binding affinity of Etf-1-binding peptides by FP assay. […] FAM-labeled peptide (50 nM) was incubated with serially diluted Etf-1 (starting from 25–30 μM in PBS, pH 7.4, supplemented with 5 mM DTT and 0.01% Triton X-100) for 1 h at RT. FP values were measured on a Tecan Infinite M1000 Pro plate reader. Titration curves (n ≥ 3) were fitted using GraphPad Prism and analyzed with TraceDrawer to calculate dissociation constants (KD). […] Data were analyzed using GraphPad Prism and fitted to a four-parameter variable slope equation to determine IC50 values.
Serial dilutions of competitor peptide (0-20 μM) were prepared from DMSO stock solutions into PBS containing 0.01% Triton-X100 and 2 mM TCEP and added to aliquots of the equilibrated Etf-1/probe solution. After incubation for 1 h in the dark and with gentle mixing, 20 μL of each sample was transferred into 384-well black-on-black microplates and FP was measured using a TECAN Infinite M1000 plate reader. Data were analyzed using GraphPad PRISM ver. 8.0 and fit to a four-parameter variable slope equation to determine IC50 values. IC50 values reported are the mean ± SD of n = 2–4 independent experiments.

The subject of data set [2] is THP-1 cells. The experiment in a line: CellTiter-Glo luminescent cell viability assay. Conditions: 2-day treatment; for cell viability: 20 μM. The source says: THP-1 (human promyelocytic leukemia) cells are widely used as E. chaffeensis infection studies of human monocytes in vitro, since initial characterization of infection ([31]).
Fig. 4. Cytotoxicity and proteolytic stability of Etf-1-binding peptides. (A) Effect of Etf-1-binding peptides on the viability of THP-1 cells as determined by CellTiter-Glo luminescent assay. Relative luminescence was plotted as function of the peptide concentration, with the cell viability of DMSO control group set as 100%. (B) Plot of the amount of intact peptide remaining as a function of the incubation time in 25% human serum. All values are normalized to that of peptide at time 0 (100%).
Cytotoxicity of Etf-1-binding peptides was examined by CellTiter-Glo luminescent cell viability assay (Promega, Madison, WI, USA). THP-1 cells were seeded in a transparent 96-well plate at a density of 5 × 10^3 cells/well (100 μL in each well) in RPMI-1640 containing 10% FBS and 1% antibiotics and cultured overnight. Etf-1-binding peptides were serially diluted in DPBS from a DMSO stock and added to the cells with the final concentration of 0–25 μM and a constant final concentration of 0.5% DMSO (v/v). After incubation at 37°C with 5% CO2 for 46 h, the plate was removed and pre-equilibrated to RT before the addition of 100 μL of the CellTiter-Glo 2.0 reagent to each well. The plate was incubated for 15 min on a rotary shaker in the dark, and the luminescence was detected (1-s integration time) on a Tecan Infinite M1000 Pro microplate reader. Relative luminescence was plotted as function of the peptide concentration, with the cell viability of DMSO control group set as 100%.

A short description of data set [3]: LDH release assay (plasma membrane damage). It counts as cell-based. Conditions: Fig. S2. The method, then:
LDH release assay (Promega) was performed to assess the level of plasma membrane damage in a cell population by these compounds. […] Control wells contained 10 μL of lysis buffer, cell-free complete growth media, or positive LDH control. Following incubation at 37°C and 5% CO2 for 45 to 75 min, the culture was centrifuged and 50 μL of the growth medium was withdrawn from each well, transferred to a clear 96-well plate, mixed with 50 μL of LDH substrate mixture, and incubated at RT for 30 min with gentle mixing. Finally, 50 μL of 1 N HCl was added to each well, and the absorbances at 490 and 680 nm were immediately measured on a Tecan Infinite M1000 plate reader. Relative membrane leakage was calculated and plotted using GraphPad Prism v8.0.
Background: LDH in the medium is a marker of cell lysis.

For data set [4], the system named is E. chaffeensis. In words: E. chaffeensis infection of THP-1 cells, qPCR of 16S rRNA gene normalized to human actin. Conditions: 10 μM, 2 days, vs DMSO control. It counts as cell-based, Ehrlichia chaffeensis. The protocol: Therefore, we investigated whether these Etf-1-binding peptides can prevent the proliferation of E. chaffeensis inside host cells. THP-1 cells were infected with E. chaffeensis, then treated with the peptides at 30 min post infection (pi) for 2 days. Intracellular infection and proliferation of E. chaffeensis inside host THP-1 cells were assessed using quantitative PCR (qPCR) analysis based on E. chaffeensis 16S rRNA gene normalized by human actin (ACT) gene.
Fig. 5. Effects of Etf-1-binding peptides on E. chaffeensis infection of THP-1 cells. Ehrlichia chaffeensis-infected THP-1 cells at […] were incubated with 10 μM of Etf-1-binding macrocyclic peptide or DMSO control for 2 days.
No antibiotic was used throughout the study.
DNA was extracted from each sample using Qiagen blood mini kit according to the manufacturer's instructions (Qiagen, Valencia, CA, USA), and qPCR analysis was performed in an MX3000P qPCR instrument (Stratagene, San Diego, CA, USA) using SYBR Green Real-Time PCR Master Mix (Thermo Fisher Scientific) according to the manufacturer's instructions. Five-fold serial dilutions of the control group were used to generate a standard curve to calculate the relative copy numbers of E. chaffeensis 16S rRNA normalized against human actin genes using the MX3000P software from Stratagene as described previously ([18], [44]).

The test system of data set [5] is E. chaffeensis. In words: morphological examination of E. chaffeensis infection of THP-1 cells by Diff-Quik staining. Conditions: for E. chaffeensis infection (numbers and sizes of morulae): THP-1 cells, Fig. S4 (with Figs. 5, S3). The method, then: Ehrlichia chaffeensis Arkansas strain ([43]) was cultured in THP-1 cells (ATCC, Manassas, VA, USA) in RPMI 1640 medium (Corning, Manassas, VA, USA) supplemented with 8% FBS (Atlanta Biologicals, Flowery Branch, GA, USA) and 4 mM L-glutamine (at 37°C under 5% CO2 in a humidified atmosphere. THP-1 cells were seeded at 1 × 10^5 cells/well (in 1.5-mL RPMI 1640 culture medium with 8% FBS, 4 mM L-Gln) in a 12-well plate, then infected with host cell-free E. chaffeensis at an MOI (multiplicity of infection, or numbers of bacteria per cell) of ∼30. Cells were cultured in a humidified incubator with 5% CO2 and 95% air. No antibiotic was used throughout the study. At 0.5 h post infection (pi), cells were incubated with 1–10 μM of peptides or with an equal volume of DMSO (solvent control, 2 μL per mL medium). At 2 days pi, cells were washed with 1 mL of PBS, and two drops of cells were cytospun onto glass slides by a Shandon Cytospin 4 cytocentrifuge (Thermo Fisher Scientific), then fixed and stained with HEMA 3 staining solutions (Thermo Fisher Scientific). Ehrlichia infection was observed and images were captured by a SPOT RT digital camera (Diagnostic Instruments, Sterling Heights, MI, USA) coupled to a Nikon Eclipse E400 microscope (Nikon, Melville, NY, USA).

The test system of data set [6] is BECN1 binding to Etf-1. The experiment in a line: streptavidin magnetic beads pull-down of BECN1 with biotin-Etf-1, Western blot. Conditions: 10 µM peptide; for BECN1/Etf-1 Ratio: band intensities, DMSO control set as 1, Fig. 8B. Type of data set: biochemical. The method, then: Fig. 8.
Streptavidin magnetic beads (15 µL, Pierce, Rockford, IL, USA) were washed with 1 mL of Bind/Wash buffer (25 mM Tris, pH 7.4; 250 mM NaCl, 0.1% Tween 20), and incubated with 0.15 µg ([…] final concentration) of biotinylated full-length Etf-1 protein in bind/wash buffer at 4°C overnight with end-to-end rotation. Beads were washed three times with Bind/Wash buffer, then incubated with Etf-1-binding macrocyclic peptides (10 µM) or DMSO control in Bind/Wash buffer at room temperature for 2 h. […] Beads were washed three times, and proteins were eluted from the beads with 50 µL of 2× SDS-sample buffer. […] Reacting bands were visualized with enhanced chemiluminescence by incubating the membrane with LumiGLO chemiluminescent reagent (Thermo Fisher Scientific). Images were captured by Amersham Imager 680 (GE Healthcare) and densitometry analysis was performed using ImagQuaNT (GE Healthcare). In each specimen, band intensities were normalized against those of actin as the loading control, and the ratios of the treatment group to the control group were calculated with the value in the control groups arbitrarily set as 1.0.
In general terms: In western blotting, separated proteins are transferred to a membrane and probed.

The structures appear in SMILES notation. Starred links: 1 amine or outer side, 2 acyl side, 3 side chain; linkers in the order of their positions; H or OH if unused. Positions of bridges follow the written chain, without caps; N, C: chain ends. Non-standard residues stand in square brackets, D forms with d. Residues, ends and D or L forms follow the SMILES beside them. *: point of attachment. 5FAM = O=C1OC2(c3ccc(O)cc3Oc3cc(O)ccc32)c2ccc(C(=O)*)cc21; Trimesoyl = O=C(c1cc(C(=O)[*:2])cc(C(=O)[*:3])c1)[*:1]; Phe(4-Cl) = N[C@@H](Cc1ccc(Cl)cc1)C(=O)O; Phe(4-F) = N[C@@H](Cc1ccc(F)cc1)C(=O)O; d2Nal = N[C@H](Cc1ccc2ccccc2c1)C(=O)O; βAsp = O=C(O)[C@H](CC(=O)[*:2])N[*:1]; Phg = N[C@H](C(=O)O)c1ccccc1; Dap = NC[C@H](N)C(=O)O; βAla = NCCC(=O)O

Sequence of Etf-1 (Q2GG12 entry or part of it): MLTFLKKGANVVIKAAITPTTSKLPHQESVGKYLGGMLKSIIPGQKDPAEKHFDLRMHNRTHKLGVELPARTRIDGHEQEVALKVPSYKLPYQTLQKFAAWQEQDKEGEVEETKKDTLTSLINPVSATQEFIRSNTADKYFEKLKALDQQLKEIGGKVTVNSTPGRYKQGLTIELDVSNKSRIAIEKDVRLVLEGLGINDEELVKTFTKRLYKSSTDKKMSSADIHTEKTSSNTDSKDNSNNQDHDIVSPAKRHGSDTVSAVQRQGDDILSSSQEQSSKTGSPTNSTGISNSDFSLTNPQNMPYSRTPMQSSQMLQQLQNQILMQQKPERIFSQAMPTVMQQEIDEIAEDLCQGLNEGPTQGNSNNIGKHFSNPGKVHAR

In the case of `CC(C)C[C@H]1NC(=O)[C@H](C)NC(=O)[C@H](CC(=O)O)NC(=O)[C@@H](Cc2ccc3ccccc3c2)NC(=O)[C@H]2CCCN2C(=O)[C@H](Cc2c[nH]cn2)NC(=O)[C@H](Cc2ccc(O)cc2)NC(=O)c2cc3cc(c2)C(=O)NC[C@H](NC1=O)C(=O)N[C@@H](Cc1ccc(Cl)cc1)C(=O)N[C@H](Cc1ccc2ccccc2c1)C(=O)N[C@H](CCCNC(=N)N)C(=O)N[C@@H](CCCNC(=N)N)C(=O)N[C@H](CCCNC(=N)N)C(=O)N[C@@H](CCCNC(=N)N)C(=O)N[C@H](C(N)=O)CNC3=O` [Peptide B7-131-5, TMA-Tyr-His-pro-nal-Asp-Ala-leu-Dap-4-ClPhe-nal-arg-Arg-arg-Arg-Dap] (YH[dP][d2Nal]DA[dL][Dap][Phe(4-Cl)][d2Nal][dR]R[dR]R[Dap]-NH2; linker N-8-15 via Trimesoyl), the “competition for Etf-1 binding” value in data set [1] is recorded as “Competition for Etf-1 binding was observed”. Moreover, the cell viability entry in data set [2] is listed as “greater loss of cell viability”. The “release of lactate dehydrogenase (LDH)” value in data set [3] was “significant release of lactate dehydrogenase”. Also, in data set [4], the “inhibition of E. chaffeensis infection” value is “significantly inhibited”. Also, in data set [5], the “E. chaffeensis infection (numbers and sizes of morulae)” value is “significantly inhibited”. Moreover, in data set [5] (THP-1 host cells), the “cytotoxicity (cell lysis in treated groups)” value is “certain degrees of cytotoxicity”. Further, the “disruption of BECN1 binding to Etf-1” value in data set [6] (compared to DMSO control) was “disrupted BECN1 binding to Etf-1”. Also, the “BECN1/Etf-1 Ratio” value in data set [6] is listed as 0.23.
With `CC(C)C[C@H]1NC(=O)C[C@@H](C(=O)O)NC(=O)[C@@H](Cc2ccc(O)cc2)NC(=O)[C@H](c2ccccc2)NC(=O)[C@H](CC(=O)O)NC(=O)[C@H](Cc2ccc(F)cc2)NC(=O)[C@H](Cc2ccc(O)cc2)NC(=O)c2cc3cc(c2)C(=O)NC[C@H](NC1=O)C(=O)N[C@@H](Cc1ccc(Cl)cc1)C(=O)N[C@H](Cc1ccc2ccccc2c1)C(=O)N[C@H](CCCNC(=N)N)C(=O)N[C@@H](CCCNC(=N)N)C(=O)N[C@H](CCCNC(=N)N)C(=O)N[C@@H](CCCNC(=N)N)C(=O)N[C@H](C(=O)NCCC(=O)NCCC(=O)N[C@@H](CCCCNC(=O)c1ccc2c(c1)C(=O)OC21c2ccc(O)cc2Oc2cc(O)ccc21)C(N)=O)CNC3=O` [Peptide B7-131-4, TMA-Tyr-Fpa-Asp-Phg-tyr-isoAsp-leu-Dap-4-ClPhe-nal-arg-Arg-arg-Arg-Dap] (Y[Phe(4-F)]D[Phg][dY][βAsp][dL][Dap][Phe(4-Cl)][d2Nal][dR]R[dR]R[Dap][βAla][βAla]K(5FAM)-NH2; linker N-8-15 via Trimesoyl), the “competition for Etf-1 binding” value in data set [1] is on record as “Competition for Etf-1 binding was observed”. For the same compound, in data set [2], the cell viability result is listed as “slightly reduced the cell viability”. Besides, in data set [2] (up to 10 μM), the cytotoxicity result is given as “no cytotoxicity”. Also, the “E. chaffeensis infection (numbers and sizes of morulae)” value in data set [5] is “only slightly reduced”. Besides, the “BECN1/Etf-1 Ratio” value in data set [6] is reported as 0.91.
